How the values were obtained:
[1] = Release of small molecule cargo loaded in the PCL fibers; format: physicochemical
Experimental: FIG. 21 depicts FITC (50-500 ng) released from the fibers over the course of 90 days. FITC was loaded in the mixture of the PCL solution similar to grazoprevir loaded meshes. (n=4)
Doxorubicin was loaded in the mixture of the PCL solution similar to grazoprevir loaded meshes. (n=3)
When used with primary CD8+ HER2-targeted NS3 CAR T cells with the same grazoprevir-dependent CARs, the […] were excited (CD69 expression) when co-cultured with the meshes and HER2-expression NALM6 cells (FIG. 19).
The meshes ability to release doxorubicin over time was characterized as a functional delivery method for chemotherapeutic drugs.

[2] = cited from earlier work

period of release from the fibers ([1]; 500 ug doxorubicin loaded in the PCL solution, n=3) | release over time in vitro ([1]; in vitro, in words) | period of release from the fibers ([1]; FITC 50-500 ng loaded in the PCL solution, n=4) | Structure (SMILES) | log P [2]
28 days | several weeks to months | – | COc1cccc2c1C(=O)c1c(O)c3c(c(O)c1C2=O)C[C@@](O)(C(=O)CO)C[C@@H]3O[C@H]1C[C@H](N)[C@H](O)[C@H](C)O1 [doxorubicin] | –
– | – | – | C=C[C@@H]1C[C@]1(NC(=O)[C@@H]1C[C@@H]2CN1C(=O)[C@H](C(C)(C)C)NC(=O)O[C@@H]1C[C@H]1CCCCCc1nc3ccc(OC)cc3nc1O2)C(=O)NS(=O)(=O)C1CC1.O [grazoprevir] | 4.7
– | – | 90 days | O=C1OC2(c3ccc(O)cc3Oc3cc(O)ccc32)c2ccc(N=C=S)cc21 [FITC] | 4.8
